From the supplement of paper PMC10307832

Experiments:
Experiment in all cases: relative viability (nuclei count vs DMSO), 5 days (fraction); higher = more cells survive
Tivantinib + Pemetrexed = compound: O=C1NC(=O)[C@@H](c2cn3c4c(cccc24)CCC3)[C@@H]1c1c[nH]c2ccccc12 [Tivantinib] + Nc1nc2[nH]cc(CCc3ccc(C(=O)N[C@@H](CCC(=O)O)C(=O)O)cc3)c2c(=O)[nH]1 [Pemetrexed] (partner 0.2 µM)
In short: (§1)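 Five library-drug doses in √10 steps were combined with a fixed anchor-drug dose, or a single drug was given alone, by pin tool to lung cancer cell lines in 1536-well plates the day after seeding. Nuclei were stained and counted after 5 days. Relative viability is the nuclei count in treated wells over that in vehicle wells, taken as the median of duplicate plates.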

Tivantinib + Tozasertib = compound: O=C1NC(=O)[C@@H](c2cn3c4c(cccc24)CCC3)[C@@H]1c1c[nH]c2ccccc12 [Tivantinib] + Cc1cc(Nc2cc(N3CCN(C)CC3)nc(Sc3ccc(NC(=O)C4CC4)cc3)n2)n[nH]1 [Tozasertib] (partner 0.1 µM)
In short: as §1

Crenolanib + Dasatinib = compound: CC1(COc2ccc3c(c2)ncn3-c2ccc3cccc(N4CCC(N)CC4)c3n2)COC1 [Crenolanib] + Cc1nc(Nc2ncc(C(=O)Nc3c(C)cccc3Cl)s2)cc(N2CCN(CCO)CC2)n1 [Dasatinib] (partner 0.075 µM)
In short: as §1

Tivantinib + Bortezomib = compound: O=C1NC(=O)[C@@H](c2cn3c4c(cccc24)CCC3)[C@@H]1c1c[nH]c2ccccc12 [Tivantinib] + CC(C)C[C@H](NC(=O)[C@H](Cc1ccccc1)NC(=O)c1cnccn1)B(O)O [Bortezomib] (partner 0.002 µM)
In short: as §1

Cell Line	relative viability (Tivantinib + Pemetrexed; first compound 0.01 µM)	relative viability (Tivantinib + Pemetrexed; first compound 0.03162 µM)	relative viability (Tivantinib + Pemetrexed; first compound 0.1 µM)	relative viability (Tivantinib + Pemetrexed; first compound 0.3162 µM)	relative viability (Tivantinib + Tozasertib; first compound 0.01 µM)	relative viability (Tivantinib + Tozasertib; first compound 0.03162 µM)	relative viability (Tivantinib + Tozasertib; first compound 0.1 µM)	relative viability (Tivantinib + Tozasertib; first compound 0.3162 µM)	relative viability (Crenolanib + Dasatinib; first compound 0.01 µM)	relative viability (Crenolanib + Dasatinib; first compound 0.03162 µM)	relative viability (Crenolanib + Dasatinib; first compound 0.1 µM)	relative viability (Crenolanib + Dasatinib; first compound 0.3162 µM)	relative viability (Crenolanib + Dasatinib; first compound 1 µM)	relative viability (Tivantinib + Bortezomib; first compound 0.01 µM)	relative viability (Tivantinib + Bortezomib; first compound 0.03162 µM)	relative viability (Tivantinib + Bortezomib; first compound 0.1 µM)	relative viability (Tivantinib + Bortezomib; first compound 0.3162 µM)
201T	0.328	0.281	0.357	0.319	0.985	0.897	0.919	0.88	0.603	0.602	0.569	0.528	0.614	1.06	1.06	1.09	1.1
A-427	1.01	1.06	0.99	0.961	0.21	0.2	0.198	0.169	0.693	0.723	0.699	0.688	0.64	0.997	1	0.854	1.06
ABC-1					0.209	0.155	0.215	0.223	0.566	0.718	0.538	0.608	0.564	0.287	0.243	0.337	0.301
BEN	0.724	0.71	0.636	0.684	0.529	0.549	0.574	0.537	0.281	0.256	0.363	0.345	0.323	0.75	0.561	0.744	0.824
CAL-12T	1.11	1.3	1.18	1.21	0.416	0.337	0.259	0.293	0.455	0.51	0.498	0.615	0.514	0.999	0.873	1.03	0.854
COR-L23	0.194	0.195	0.204	0.195	0.185	0.188	0.184	0.234	0.497	0.466	0.475	0.54	0.417	0.977	0.93	0.942	0.996
COR-L 105	1.02	1.05	1.08	0.696	0.32	0.414	0.397	0.383	0.453	0.315	0.383	0.42	0.411	0.754	0.398	0.671	0.354
Calu-6														1.08	1.07	0.969	0.738
ChaGo-K-1	0.264	0.254	0.264	0.251	0.205	0.219	0.218	0.218	0.6	0.579	0.617	0.585	0.604	0.96	0.957	0.941	0.989
EBC-1														0.611	0.596	0.557	0.465
EKVX	0.344	0.413	0.425	0.203	0.388	0.346	0.421		0.519	0.473	0.561	0.591	0.512	1.22	1	0.928	0.6
EMC-BAC-2	0.457	0.448	0.475	0.479	0.276	0.271	0.136	0.261	0.369	0.312	0.315	0.313	0.307	1.05	0.989	1.04	0.969
EPLC-272H	0.408	0.356	0.344	0.182	0.206	0.268	0.283	0.152	0.35	0.349	0.317	0.391	0.532	1.16	0.813	0.741	0.608
H3255	0.554	0.586	0.598		0.62	0.594	0.535		0.323	0.266	0.376	0.422	0.338	0.812	0.884	0.723	
HARA	0.279	0.252	0.263	0.24	0.122	0.12	0.104	0.0992	0.234	0.256	0.3	0.246	0.292	1.16	1.04	1.07	1.06
HCC-15	0.215	0.221	0.227	0.224	0.463	0.442	0.409	0.335	0.645	0.678	0.66	0.701	0.545	0.949	0.995	0.943	1.04
HCC-44	0.62	0.654	0.616	0.664	0.968	0.712	0.887	0.275						0.87	0.975	0.883	0.915
HCC-78	0.893	0.878	0.933	0.879	0.443	0.437	0.405	0.277	0.389	0.314		0.354	0.275	0.593	0.319	0.38	
HCC-366	0.163	0.145	0.148	0.149	0.103	0.114	0.115	0.0949	0.655	0.662	0.593	0.648	0.519	0.996	1.16	1.03	1.03
HCC-827	0.251	0.257	0.272		0.388	0.402	0.48	0.312	0.338	0.33	0.398	0.366	0.396	1.02	1.12	1.03	1.11
HOP-62	0.333	0.29	0.368	0.247	0.383	0.352	0.385	0.377	0.658	0.703	0.578	0.769	0.684	0.948		0.591	1.05
IA-LM														0.855	0.942	0.743	0.848
